The subject of one data set is mice. As to the kind of experiment: Toxicity of Epox-PP (sodium salt) in mice, intravenous injection. Type of data set: in vivo. The method, then: Five 30 g mice received an intravenous injection (caudal vein) of 300 μl of PBS buffer containing 1 mg of Epox-PP (sodium salt). […] Toxicity is thus less than 20% for a dose of 33.4 mg of Epox-PP (sodium salt) per kilogram of animal body weight.

The next data set deals with Tγ9δ2 lymphocytes. As to the kind of experiment: Bioactivity (induced cytotoxicity test) after transient chemical treatment. Also noted: key: + indicates detection of activity upon Tγ9δ2 lymphocytes; − indicates that no activity could be detected. Conditions: diluted 1:30 from 5 to 10 μM solutions. Type of data set: cell-based. The method, then:
The bioactivity of the compound according to the invention Epox-PP (obtained as stated in Example 1) is compared with that of a stock preparation of Tubag natural phosphoantigens obtained as described in WO 95/20673.
Bioactivity is measured by an induced cytotoxicity test as described in Example 6 using the compound to be tested diluted 1:30 from 5 to 10 μM solutions of the compounds.
Before bioactivity is measured, the compounds are subjected to a transient chemical treatment by being brought into contact with one of the following reagents: NaIO4 (5 mM); NaBH3CN (10 mM, pH 7); KMnO4 (1 mM); bromine water Br2, H2O (7 mM), followed by neutralization of the reagent.

In a further data set the test system is Tγ9δ2 lymphocyte clone. As to the kind of experiment: Induced cytotoxicity test of a Tγ9δ2 lymphocyte clone. Format: cell-based. Conditions: for concentration at which the compound is active: stimulation of specific cytotoxic activity.
The subject of data set [1] is human Tγ9δ2 lymphocytes. Conditions: prior art prenyl pyrophosphates, best results obtained; cited from earlier work.
Data set [2] deals with human Tγ9δ2 lymphocytes.

On to “3,4-epoxy-3-methyl-1-butyl diphosphate [Epox-PP (sodium salt)]”, for which the “sign of shock or pyrogenicity” value in the data set with mice (1 mg i.v. (caudal vein) per 30 g mouse) is “No sign of shock or pyrogenicity”. For the same substance, the “variation in the weight of the mice” value in the data set on mice (1 mg i.v. per 30 g mouse, during the study) is “no significant variation”. In addition, the Toxicity entry in the data set on mice (dose of 33.4 mg per kilogram of animal body weight, i.v.) is “less than 20%”. The “mice still alive after 30 days” value in the data set on mice (five mice, 1 mg i.v. per 30 g mouse, 30 days) is recorded as 5 mice.

For “3,4-epoxy-3-methyl-1-butyl diphosphate [Epox-PP]”, in the data set with Tγ9δ2 lymphocytes (KMnO4 1 mM), the “Bioactivity after chemical treatment: KMnO4 (1 mM)” value was “+”. Moreover, in the data set with Tγ9δ2 lymphocytes (NaBH3CN 10 mM pH 7), the “Bioactivity after chemical treatment: NaBH3CN (10 mM pH7)” value is recorded as “+”. The “Bioactivity after chemical treatment: NaIO4 (5 mM)” value in the data set with Tγ9δ2 lymphocytes (NaIO4 5 mM) is recorded as “+”. For the same substance, in the data set on Tγ9δ2 lymphocytes (bromine water 7 mM), the “Bioactivity after chemical treatment: Br2, H2O (7 mM)” value is “+”. In addition, in the data set on Tγ9δ2 lymphocytes (no reagent), the “Bioactivity after chemical treatment: none” value is reported as “+”. In the data set on Tγ9δ2 lymphocyte clone, the “concentration at which the compound is active” value is approximately 20 nM.

As to isopentenylpyrophosphate [IPP], the “minimum concentration at which activity could be demonstrated” value with human Tγ9δ2 lymphocytes [1] is not below 3 µM. The “active concentration relative to the compound from Example 1” value in the data set with Tγ9δ2 lymphocyte clone (IPP versus Epox-PP) was found to be 150 times higher. The “concentration at which the compound is active” value in the data set with Tγ9δ2 lymphocyte clone was approximately 3000 nM. In addition, the “minimum active concentration relative to natural phosphoantigens” value with human Tγ9δ2 lymphocytes [2] was approximately 1000 times higher.

The record behind these values is US7432253B2, “Phosphoepoxides, method for making same and uses” (Institut National de la Sante et de la Recherche Medicale, priority 1998, dated 2008).
